Test results published in the NIST ThermoML archive (doi:10.1016/j.jct.2014.06.006).
± gives the expanded uncertainty stated by the source.

assay: activity coefficient (dimensionless); of the first substance listed, at infinite dilution; xn = mol fraction of the nth substance listed; settings: 298 K; 238 kPa; Liquid; Chromatography; x1 = 0

SMILES | activity coefficient
Cc1ccccc1C [1,2-dimethylbenzene] + CC(O)CO | 26.3 ± 3.1
Cc1ccccc1C [1,2-dimethylbenzene] + COCCO | 5 ± 0.3
Cc1cccc(C)c1 [1,3-dimethylbenzene] + CC(O)CO | 28.4 ± 2.2
Cc1cccc(C)c1 [1,3-dimethylbenzene] + COCCO | 5.2 ± 0.3
Cc1ccc(C)cc1 [1,4-dimethylbenzene] + CC(O)CO | 26.7 ± 3.1
Cc1ccc(C)cc1 [1,4-dimethylbenzene] + COCCO | 5.2 ± 0.3
C=CCCCCC=C [1,7-octadiene] + COCCO | 10.6 ± 0.5
Cc1ccc(C(C)C)cc1 [1-(1-methylethyl)-4-methylbenzene] + COCCO | 10 ± 0.5
C=CC1CC=CCC1 (stereo unspecified) [4-ethenylcyclohexene] + COCCO | 8.6 ± 0.3
c1ccccc1 [benzene] + CC(O)CO | 11.8 ± 1.1
c1ccccc1 [benzene] + COCCO | 2.4 ± 0.4
Brc1ccccc1 [bromobenzene] + COCCO | 3.5 ± 0.2
Clc1ccccc1 [chlorobenzene] + CC(O)CO | 13.6 ± 1.1
Clc1ccccc1 [chlorobenzene] + COCCO | 2.9 ± 0.4
C1CCCCC1 [cyclohexane] + COCCO | 11.4 ± 0.7
C1=CCCCC1 [cyclohexene] + COCCO | 7.4 ± 0.3
C1CCCCCCC1 [cyclooctane] + COCCO | 20.1 ± 0.9
CCCCCCCCCC [decane] + COCCO | 56.8 ± 2.2

SMILES | activity coefficient
CCc1ccccc1 [ethylbenzene] + CC(O)CO | 26.2 ± 3.1
CCc1ccccc1 [ethylbenzene] + COCCO | 4.9 ± 0.3
Fc1ccccc1 [fluorobenzene] + CC(O)CO | 8.5 ± 0.5
Fc1ccccc1 [fluorobenzene] + COCCO | 1.8 ± 0.2
CCCCCCC [heptane] + CC(O)CO | 109 ± 30
CCCCCCC [heptane] + COCCO | 22.4 ± 0.9
CCCCCC [hexane] + CC(O)CO | 63 ± 20
CCCCCC [hexane] + COCCO | 16.3 ± 0.8
CC1CCCCC1 [methylcyclohexane] + COCCO | 14.7 ± 0.9
CC1CCCC1 [methylcyclopentane] + COCCO | 11 ± 0.7
c1ccc2ccccc2c1 [naphthalene] + CC(O)CO | 136 ± 21
c1ccc2ccccc2c1 [naphthalene] + COCCO | 11 ± 2
CCCCCCCCC [nonane] + COCCO | 41.4 ± 1.7
CCCCCCCC [octane] + CC(O)CO | 150 ± 40
CCCCCCCC [octane] + COCCO | 27.9 ± 1
Cc1ccccc1 [toluene] + CC(O)CO | 17 ± 2.1
Cc1ccccc1 [toluene] + COCCO | 3.6 ± 0.4
CCCCCCCCCCC [undecane] + COCCO | 94.6 ± 3.7
